Results on 12 compounds are retold here after patent publication US20130252945A1, “AMORPHOUS BIOINORGANIC IONIC LIQUID COMPOSITIONS COMPRISING PHARMACEUTICALS” (priority 2012, published 2013).

Series [1] in a line: Storage under Ar, observation for crystalline domains over 6 months. The series is classed as physicochemical. To be noted: stored under Ar, observed over 6 months.
A short description of series [2]: Decomposition temperature by TGA. The series is classed as physicochemical. As to conditions: for Tdec (decomposition temperature): TGA under N2, 20° C. per minute. How it is done: (§1) Melting points of all purchased materials were determined in a capillary tube using a MeI-Temp apparatus (Barnstead/Thermo Scientific). NMR data sets were collected on a 300 MHz Bruker instrument using sample concentrations of 50 mM. Infrared spectra were measured using an Avatar 360 FT-IR ESP (ThermoElectron-Nicolet, Waltham, Mass.) equipped with a Smart DuraSamplIR horizontal attenuated total reflectance (HATR) accessory. Raman spectra were measured using a Thermo-Nicolet 470 FTIR with Nd:YAG laser excitation and HgCdTe detector. Viscosity was measured on 1 mL samples with a Viscolab 3000 viscometer (Cambridge Viscosity, Medford, Mass.). Samples were heated to 90° C., except when otherwise specified, and viscosity was recorded in 2 degree increments between 50 and 90° C. with 8 min equilibration at each temperature. Thermal characterization was carried out using a Q100 DSC and a Q500 TGA (both from TA Instruments, New Castle, Del.). DSC was performed using a 5-10 mg sample in a 40 μL aluminum crucible sealed in the glovebox. A temperature range from −60 to 150° C. was scanned twice, at ramp rates of 5° C./min and 10° C./min. TGA was performed under N2 atmosphere over a temperature range from 25-800° C. with a ramp rate of 20° C. per minute and a sample size of 10 mg.

Series [3] deals with Pseudomonas aeruginosa biofilms (clinical isolate from sputum). The series can be described thus: Challenge of established biofilms (72 h) with test compound, CFU count. To be noted: 6 h at 37° C. The class given is cell-based.
The nature of series [4]: Solubility in solvents (soluble / insoluble). To be noted: organic solvent or mixture.
The subject of series [5] is Pseudomonas aeruginosa culture. The series can be described thus: Biofilm growth on IL-coated culture plates. The series is classed as cell-based. To be noted: 100 μL IL per well, counted after 72 h, limit of detection. How it is done:
(§2) A second example of clear, colorless antimicrobial films formed by compositions described herein was shown with an assay that involved coating culture plates with IL and observing the biofilm growth on the coated surface. […] Aliquots of 100 μL of either a Staphylococcus aureus culture, an E. coli culture, or a Pseudomonas aeruginosa culture were added to each coated well, the plate was fed with fresh media every 24 h, and cells were counted after 72 h, as described above. The number of cells in the treated wells was below the limit of detection of the assay of 1000 cfu/mL, as compared with normal cell counts for the LB control wells, indicating high antimicrobial efficacy of the IL coating. Because bacteria colonize a surface prior to barnacles and other organisms, proof of antibacterial effects is key to showing anti-biofouling potential in aquatic environments.

In series [6] the test system is Staphylococcus aureus culture. The series can be described thus: Biofilm growth on IL-coated culture plates. The class given is cell-based. As to conditions: 100 μL IL per well, counted after 72 h, limit of detection. The procedure:
as §2

The test system of a further series is E. coli culture. Put plainly: Biofilm growth on IL-coated culture plates. The series is classed as cell-based. As to conditions: 100 μL IL per well, counted after 72 h, limit of detection. The procedure: as §2
Series [7] is classed as physicochemical. As to conditions: 3 h incubation at a constant 120° C.
The nature of series [8]: Solubility at 1 mM in unbuffered water by eye and UV-Vis after filtration. The series is classed as physicochemical. As to conditions: unbuffered water (pH 6.5), by eye. The procedure: Solubility of phenoxybenzamine hydrochloride and phenoxybenzamine-HCl—(ZnCl2)2 at 1 mM in unbuffered water (pH 6.5) was evaluated by eye and by UV-Vis spectroscopy after filtration through a 0.45 μm syringe filter.

Series [9] is described as follows: Shelf life by model-free isoconversional kinetic analysis of TGA data. The class given is physicochemical. The procedure: Zinc(II) chloride (273 mg, 2 mmol) was added to a scintillation vial that had been heated, then cooled under vacuum and charged with dry argon. Phenoxybenzamine hydrochloride (340.3 mg, 1 mmol) was added to the vial with a stir bar and the mixture was degassed with stirring at 60° C. The vial was filled with argon, sealed with a cap, and stirred for 24 h at 80° C. to produce a clear, colorless glass. […] NMR spectra for ^1H and ^13C were obtained in d6-acetone. […] Spectra of phenoxybenzamine-HCl were performed with 0, 0.25, 0.5, 1.0, 1.5, 2.0, and 5.0 molar equivalents of ZnCl2 to observe this effect. Thermal decomposition after a 3 h incubation of the IL at a constant 120° C. was 2.7% of the starting mass. In contrast, the phenoxybenzamine hydrochloride starting material loses 38% of its mass after a similar incubation. The IL was soluble (>1 mM) in acetone, water and phosphate buffered to pH 6.0. The IL was insoluble (<1 mM) in toluene and tetrahydrofuran. […] The manufacturer's shelf life for 10 mg phenoxybenzamine hydrochloride tablets is 2 years, or 730 days, and the calculated value for solid phenoxybenzamine hydrochloride (5% decay at 20° C.) was 750 days (2.05 years), indicating good agreement of the calculation with actual shelf life. […]

Series [10] is described as follows: Viscosity (Viscolab 3000 viscometer). The series is classed as physicochemical. As to conditions: at 90° C. How it is done: as §1

Values joined by “and” are separate entries in the source; they are usually repeats but may differ in a detail not shown here. Equal values may be shown once. Where a name gives a salt, the structure may show the parent alone. Where only a bound is given, the exact number is not on record here.

For `CNC(=C[N+](=O)[O-])NCCSCc1ccc(CN(C)C)o1.Cl.[Cl][Zn][Cl].[Cl][Zn][Cl]`, the “appearance of crystalline domains on storage” value (“appearance” for short) in series [1] is recorded as “no crystalline domains appeared”. Further, the “Tdec (decomposition temperature)” value in [2] worked out at 230.9 °C.
As for `CCCC[N+]1(C)CCCC1.O=S(=O)([N-]S(=O)(=O)C(F)(F)F)C(F)(F)F` [BMP-NTf2, 1-butyl-1-methypyrrolidinium bistriflimide], the “cell count of biofilm after challenge” value in series [3] (neat) is recorded as 2×10^5.
In general, solubility refers to the dissolved amount per volume that the medium holds. Take `CN1[C@@H]2CC[C@H]1CC(OC(=O)C(O)c1ccccc1)C2` (stereo partly drawn) [Homatropine-HCl—(ZnCl2)2]: the figures for the solubility in [4] (dimethylsulfoxide) and in [4] (toluene) were > 1000 µM and < 1000 µM, respectively. For the same compound, the “appearance” value in [1] is reported as “no crystalline domains appeared”. Besides, the “ΔTdec (increase in decomposition temperature relative to HCl starting material)” value in series [2] (TGA) was “+7.8 °C”.
For the compound `CN(C)CCCN1c2ccccc2CCc2ccccc21.Cl.[Cl][Zn][Cl].[Cl][Zn][Cl]` [Imipramine-HCl—(ZnCl2)2], the “appearance” value in [1] is given as “no crystalline domains appeared”.
In the case of `[Cl-].[Na+]` [NaCl], the “cell count of biofilm after challenge” value in [3] (5 M in LB, control for ionic strength) is recorded as 1×10^6 cells.
Take `[Cl-].[Cl-].[Zn+2]` [ZnCl2, Zinc(II) chloride]: the “cell count of biofilm after challenge” value in series [3] (1.8 M in LB) is on record as 4×10^5.
Consider `CC(C)(C)CC(C)(C)c1ccc(OCCOCC[N+](C)(C)Cc2ccccc2)cc1` [benzethonium chloride, Benzethonium chloride], for which, in [3] (78 mM in LB, formed precipitate), the “viable dispersed cell count (conservative estimate)” value was ~5×10^4 cfu/mL.
As for `CC(C)(C)CC(C)(C)c1ccc(OCCOCC[N+](C)(C)Cc2ccccc2)cc1` [benzethonium-Cl—(ZnCl2)2, Benzethonium-Cl—(ZnCl2)2], the “number of cells in treated (IL-coated) wells” value (in series [5]; in series [6]; in the series with E. coli culture) was < 1000 cfu/mL in each case.
On to `CC(COc1ccccc1)N(CCCl)Cc1ccccc1` (stereo not drawn) [phenoxybenzamine hydrochloride, Phenoxybenzamine hydrochloride, reference compound], for which, in [7], the “thermal decomposition (loss of starting mass)” value came out at 38%.
Take `CC(COc1ccccc1)N(CCCl)Cc1ccccc1.Cl.[Cl][Zn][Cl].[Cl][Zn][Cl]` (stereo not drawn) [phenoxybenzamine-HCl—(ZnCl2)2, Phenoxybenzamine-HCl—(ZnCl2)2]: the “solubility in unbuffered water (appeared to completely dissolve)” value in series [8] was ≥ 1 mM and ≥ 0.34 mg/mL. In series [1], the “appearance” value is reported as “no crystalline domains appeared”. In addition, the “thermal decomposition (loss of starting mass)” value in series [7] was found to be 2.7%. In addition, the “improvement of shelf life over solid phenoxybenzamine hydrochloride” value in series [9] (at 20° C., 5% decomposition) came to 7.7 fold. In addition, in [9] (compared with 4-day refrigerator shelf life), the “improvement of shelf life over standard formulation in syrup and propylene glycol” value was 1500 fold.
The compound Ethambutol-(HCl)2—(ZnCl2)2 came in with a Viscosity in [10] of 17350 cP. Besides, the “appearance” value in series [1] is given as “no crystalline domains appeared”.
With Procainamide-HCl—(ZnCl2)2, in [1], the “appearance” value was “no crystalline domains appeared”. Also, in [2], the “Tdec (decomposition temperature)” value turned out to be 291.0 °C.
